Data from US20100168228A1, “NOVEL CHEMOTHERAPEUTIC AGENTS AGAINST INFLAMMATION AND CANCER” (RELIANCE LIFE SCIENCES PVT. LTD., priority 2006, published 2010).

What was measured:
Assay type in all cases: cell-based, human
ICAM1 (CD54) = assay: ICAM 1 (CD 54) expression by flow cytometry
Protocol: FIG. 7: Effect of CAMVE on TNF or LPS induced ICAM1 (CD54) expression. Cells (5×10^5 cells/ml) were pretreated with different concentrations of CAMVE for 3 h and then treated with TNF (0.1 nM) or SA-LPS (100 ng/ml) for 12 h at 37° C. in a CO2 incubator. Treated cells were washed and stained with anti human CD54-FITC conjugated antibody to measure the amount of surface ICAM1 expression. The relative mean fluorescence intensity (MFI) was measured using FACS Calibur (BD). A. Representative histogram overlay showing TNF or LPS stimulated (1), basal (2), CAMVE pretreated (3). B. Values are given as MFI (mean±S.D.) in percent of basal expression, which was set to 100%.
Cells were pretreated with different concentrations of CAMVE for 3 h and then treated with 0.1 nM of TNF or 100 ng/ml SA-LPS for 12 h at 37° C. in a CO2 incubator. Extent of ICAM 1 expression was detected by staining the washed cells with FITC-labeled monoclonal antibody which binds to the cells expressing the CD 54 (ICAM 1). Unbound FITC-conjugated antibody is then washed from the cells and the cells were resuspended in 0.5 ml of 1% paraformaldehyde, and analyzed using Flow Cytometer (B D FACS Calibur). Cells CD54 structure is fluorescently stained, with the intensity of staining is directly proportional to the density of CD54.

Jurkat cells = assay: Nuclear staining assay (propidium iodide), Jurkat; details: 24 h
Protocol: Nuclear staining assay: After treatment with the compound for 24 h, Jurkat cells were washed once with ice-cold EDTA/PBS (5 mM) and fixed with 70% ethanol for 1 h at RT. Fixed cells were placed on slides and stained with PI (5 μg/ml) with RNase A (1 mg/ml) for 20 mins. After decolourization with water, nuclear morphology of cells was examined by fluorescence microscopy.

bcl-2 = bcl-2 mRNA, semi-quantitative RT-PCR, Jurkat; details: 0-500 nM, 24 h
Protocol: FIG. 18: Effects of compound 27 on p53, Bax, bcl-2 mRNA levels in Jurkat cells. Expression of human p53, bax-α, bcl-2, was assayed by semi quantitative RT-PCR analysis with GAPDH as internal control. Cells were treated for 24 h with various doses of the compound (0, 50, 100 and 500 nM), then total RNA was extracted and submitted to RT-PCR.
RNA extraction: Total RNA was isolated using the standard TRIzol method (Gibco BRL). Briefly, 3×10^6 cells were treated with different concentrations of the compounds as indicated in the legends to Figures and after harvesting the cell pellet was resuspended in 1 ml of TRIzol with repeated pipetting. The homogenized sample was incubated at RT for 5 min to permit complete dissociation of the nucleoprotein complexes. […] of chloroform was added and the tubes were shaken vigorously for 15 sec by hand and then incubated at RT for 3 mins. The samples were then centrifuged at 10,000 RPM for 15 mins at 4° C. The aqueous phase was transferred to a fresh tube and 500 μl of Isopropyl alcohol was added, followed by incubation at RT for 10 mins. […]
Semi-quantitative reverse transcriptase (RT)-PCR: Changes in gene expression were verified by semi-quantitative RT-PCR using GAPDH as an internal normalization standard. 1 μg of total RNA (quantified by spectrophotometer) was used to reverse transcribe into cDNA. […]

Row | Compound | basal ICAM1 expression (ICAM1 (CD54); CAMVE alone) | TNF or LPS induced ICAM1 expression (ICAM1 (CD54); pretreated 3 h, TNF 0.1 nM or SA-LPS 100 ng/ml 12 h) | nuclear morphology after propidium iodide staining (Jurkat cells) | anti-apoptotic bcl-2 mRNA levels (bcl-2)
1 | COC(=O)c1ccc(OC(=O)/C=C/c2ccc(O)c(O)c2)c(OC)c1 [compound 1, Methyl 4-{[(2E)-3-(3,4-dihydroxyphenyl)prop-2-enoyl]oxy}-3-methoxybenzoate] | not altered by incubation with CAMVE alone | blocked in CAMVE pretreated cells |  | 
2 | COc1cc([C@@H]2Oc3c(OC)cc(/C=C/C(=O)O)cc3[C@H]2C(=O)O)ccc1O [compound 27, 5-[(E)-2-carboxyvinyl]-2β-(4-hydroxy-3-methoxyphenyl)-7-methoxy-2,3-dihydro-1-benzofuran-3α-carboxylic acid] |  |  | typical apoptotic nuclei | downregulated in a dose dependent manner
